Experimental findings from ChEMBL document CHEMBL1152301, “Substitution of aminomethyl at the meta-position enhances the inactivation of O6-alkylguanine-DNA alkyltransferase by O6-benzylguanine” (J Med Chem, 2008) are described below.

Usually inhibition stands for the percentage by which the read-out fell short of the control.

Substitutions are numbered along the chain they refer to. Calls of active or inactive are those of the source. The rule behind the calls is not given here.

The target of data set [1] is T1, Methylated-DNA--protein-cysteine methyltransferase (Homo sapiens) (UniProt P16455).
T1 sequence (whole entry): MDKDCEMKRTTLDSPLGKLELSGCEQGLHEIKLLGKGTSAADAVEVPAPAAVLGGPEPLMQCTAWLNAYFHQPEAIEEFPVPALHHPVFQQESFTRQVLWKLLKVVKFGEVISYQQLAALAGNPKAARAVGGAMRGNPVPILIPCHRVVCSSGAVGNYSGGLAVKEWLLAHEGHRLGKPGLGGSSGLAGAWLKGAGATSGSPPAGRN
Kind of data set: Inactivation of human O-6-alkylguanine-DNA-alkyltransferase in human HT-29 cells at 1 uM after 30 mins by reverse-phase HPLC in presence of [3H]methylated calf thymus DNA.

Data set [2] concerns the target T1, Methylated-DNA--protein-cysteine methyltransferase (Homo sapiens).
Description: Inactivation of histidine6-tagged wild type human recombinant O-6-alkylguanine-DNA-alkyltransferase expressed in Escherichia coli assessed as [3H]methylated protein formation in absence of [3H]methylated calf thymus DNA
In data set [3] the test system is T2, Methylated-DNA--protein-cysteine methyltransferase (Homo sapiens), P16455 [S159A].
T2 sequence (whole entry): T1 sequence (whole entry) with S159A
Description: Inactivation of histidine6-tagged human recombinant O-6-alkylguanine-DNA-alkyltransferase S159A mutant expressed in Escherichia coli assessed as [3H]methylated protein formation in presence of [3H]methylated calf thymus DNA

For data set [4] the test system is unchanged. This is another data set of the same source.
Description: Inactivation of histidine6-tagged human recombinant O-6-alkylguanine-DNA-alkyltransferase S159A mutant expressed in Escherichia coli assessed as [3H]methylated protein formation in absence of [3H]methylated calf thymus DNA
For data set [5], the system named is HT-29. As to the kind of experiment: Sensitization of human HT-29 cells to BCNU-induced cytotoxicity assessed as survival treated for 2 hrs before BCNU challenge measured after 16 to 18 hrs by colony forming assay. Format: functional, cell-based.
In data set [6] the target is T1, Methylated-DNA--protein-cysteine methyltransferase (Homo sapiens). This is another data set of the same source.
Description: Inactivation of histidine6-tagged wild type human recombinant O-6-alkylguanine-DNA-alkyltransferase expressed in Escherichia coli assessed as [3H]methylated protein formation in presence of [3H]methylated calf thymus DNA
Data set [7] in a line: Stability assessed as N6-[2-(hydroxymethyl)-benzyl]-2-aminoadenine formation in aqueous solution. Format: physicochemical. Conditions: buffer.
Data set [8] concerns the target T1, Methylated-DNA--protein-cysteine methyltransferase (Homo sapiens). Kind of data set: Inactivation of histidine6-tagged human recombinant O-6-alkylguanine-DNA-alkyltransferase expressed in Escherichia coli assessed as [3H]methylated protein formation at 1 mM.

As to `NCc1ccc(COc2nc(N)nc3nc[nH]c23)cc1`, the inhibition in data set [1] is 20%. Also, the ED50 in data set [2] is 0.23 µM; in data set [3], 0.028 µM; in data set [4] it was 0.16 µM; in data set [6], 0.053 µM. Further, the result in data set [5] was Active.
Regarding `Nc1nc(NCc2ccccc2CO)c2[nH]cnc2n1`, the ED50 in data set [2] and in data set [6] was over 1000 µM in each case. Also, the t1/2 in data set [7] worked out at 50 h. For the same compound, in data set [8], the inhibition was under 10%.
As for `NCc1ccccc1COc1nc(N)nc2nc[nH]c12`, the figures for the ED50 in data set [2] and in data set [6] were 80 µM and 45 µM, respectively.
With `Cc1cccc(COc2nc(N)nc3nc[nH]c23)c1`, the ED50 worked out at 0.25 µM in data set [2] and 0.16 µM in data set [6].
In the case of `Cc1ccc(COc2nc(N)nc3nc[nH]c23)cc1`, the ED50 in data set [2] is 0.32 µM.
On to `Cc1ccccc1COc1nc(N)nc2nc[nH]c12`, for which the ED50 in data set [2] was 185 µM; in data set [6], 90 µM.
